Source: ChEMBL document CHEMBL3044873, “Aryl N, N-Dimethylcarbamates, Synergists for Organophosphorus Insecticides against Organophos-phorusresistant Rice Stem Borers” (J Pestic Sci, 1990)

test system: Chilo suppressalis; test: Potentiation of fenitrothion-induced insecticidal activity against OP-resistant Chilo suppressalis Hata-f (rice stem borer) assessed as synergistic ratio at 1:10 fenitrothion to compound ratio relative to fenitrothion alone; type: functional

SMILES | fold change (FC)
CN(C)C(=O)Oc1c(Cl)cc(Cl)c2ccccc12 | 1.3
Cc1cc(OC(=O)N(C)C)nc(C)n1 | 11
CCNC(=O)Oc1ccc([N+](=O)[O-])c(C)c1 | 0.7
CCNC(=O)Oc1ccc(SC)c(C)c1 | 0.6
CCNC(=O)Oc1ccc(Cl)c(C)c1 | 1.2
CCNC(=O)Oc1cccc2ccccc12 | 1
Cc1cc(OC(=O)Nc2ccccc2)ccc1[N+](=O)[O-] | 0.9
CSc1ccc(OC(=O)Nc2ccccc2)cc1C | 0.7
Cc1cc(OC(=O)Nc2ccccc2)ccc1Cl | 0.8
O=C(Nc1ccccc1)Oc1cccc2ccccc12 | 1
CN(C)C(=S)Oc1ccc([N+](=O)[O-])cc1 | 1.6
CSc1ccc(OC(=S)N(C)C)cc1 | 2.3
CN(C)C(=S)Oc1ccc(C#N)cc1 | 2.1
Cc1cc(OC(=S)N(C)C)ccc1[N+](=O)[O-] | 1.3
CSc1ccc(OC(=S)N(C)C)cc1C | 4.9
Cc1cc(OC(=S)N(C)C)ccc1Cl | 4.1
CN(C)C(=O)Sc1ccc([N+](=O)[O-])cc1 | 1.9
CN(C)C(=O)Sc1ccc(Cl)cc1 | 1.9
CN(C)C(=O)Oc1ccc(=O)n(-c2ccccc2)n1 | 3.1
CN(C)C(=O)Oc1cccc2ccccc12 | 13
CN(C)C(=O)OCc1ccc2c(c1)OCO2 | 0.9
CCOC(=O)/C=C(\C)OC(=O)N(C)C | 1
CCN(CC)C(=O)Oc1ccc([N+](=O)[O-])c(C)c1 | 2.3
CCN(CC)C(=O)Oc1ccc(SC)c(C)c1 | 4.6
CCN(CC)C(=O)Oc1ccc(Cl)c(C)c1 | 1.8
CCN(CC)C(=O)Oc1cccc2ccccc12 | 2.5
CCN(CC)C(=O)Oc1cc(C)nc(N(C)C)n1 | 13

SMILES | fold change (FC)
CCN(CC)C(=O)Oc1cc(C)nc(N(CC)CC)n1 | 8.7
CCN(CC)C(=O)Oc1cc(-c2ccccc2)on1 | 4.1
CNC(=O)Oc1ccc([N+](=O)[O-])c(C)c1 | 1.1
CNC(=O)Oc1ccc(SC)c(C)c1 | 0.8
CNC(=O)Oc1ccc(Cl)c(C)c1 | 1.1
CN(C)C(=O)Oc1ccc(-c2ccccc2)cc1 | 2
Cc1ccc([N+](=O)[O-])c(OC(=O)N(C)C)c1 | 3.1
Cc1ccc(OC(=O)N(C)C)c([N+](=O)[O-])c1 | 5.8
Cc1cc(OC(=O)N(C)C)ccc1Cl | 12
CN(C)C(=O)Oc1ccc([N+](=O)[O-])cc1Cl | 2.4
CN(C)C(=O)Oc1ccc([N+](=O)[O-])c(Cl)c1 | 6.3
CN(C)C(=O)Oc1ccc([N+](=O)[O-])c(C(F)(F)F)c1 | 8
Cc1c(OC(=O)N(C)C)cc([N+](=O)[O-])cc1[N+](=O)[O-] | 1.1
Cc1cc(OC(=O)N(C)C)cc(C)c1Cl | 11
CN(C)C(=O)Oc1ccccn1 | 11
CN(C)C(=O)Oc1nc(Cl)c(Cl)cc1Cl | 4.1
CN(C)C(=O)Oc1ccc2ccccc2n1 | 15
CN(C)C(=O)Oc1cccc2cccnc12 | 4.6
Cc1cc(OC(=O)N(C)C)nc(-c2ccccc2)n1 | 13
CSc1nc(C)cc(OC(=O)N(C)C)n1 | 14
COc1nc(C)cc(OC(=O)N(C)C)n1 | 13
Cc1cc(OC(=O)N(C)C)nc(C(C)C)n1 | 15
Cc1cc(OC(=O)N(C)C)nc(Nc2ccccc2)n1 | 2.8
CCC(C)c1ccccc1OC(=O)N(C)C (stereo not drawn) | 1.8
CN(C)C(=O)Oc1cccc(C(C)(C)C)c1 | 3.5
CN(C)C(=O)Oc1cc(Cl)c(Cl)cc1Cl [2,4,5-TRICHLOROPHENYL DIMETHYLCARBAMATE] | 5.8
